Values after ≈ are worked out from the molar mass of the structure shown.
Legend:
Format in all cases: cell-based
[1] = system: Rhizopus nigricans; test: conventional agar dilution test, fungicidal activity, Rhizopus nigricans; settings: Rhizopus stolonifer, complete growth inhibition, read-out: Minimum Inhibitory Concentration
Description: (§1) In representative operations, the products of the invention when tested for fungicidal activity using conventional agar dilution tests gave complete growth inhibition against the following organisms at the indicated concentrations in parts per million: […]

[2] = system: Trichophyton mentagrophytes; test: conventional agar dilution test, fungicidal activity, Trichophyton mentagrophytes; settings: complete growth inhibition, read-out: Minimum Inhibitory Concentration
Description: as §1

[3] = system: Candida pelliculosa; test: conventional agar dilution test, fungicidal activity, Candida pelliculosa; settings: Hansenula anomala, complete growth inhibition, read-out: Minimum Inhibitory Concentration
Description: as §1

[4] = system: Aspergillus terreus; test: conventional agar dilution test, fungicidal activity, Aspergillus terreus; settings: complete growth inhibition, read-out: Minimum Inhibitory Concentration
Description: as §1

[5] = system: Pullularia pullulans; test: conventional agar dilution test, fungicidal activity, Pullularia pullulans; settings: complete growth inhibition, read-out: Minimum Inhibitory Concentration
Description: as §1

[6] = system: Candida albicans; test: conventional agar dilution test, fungicidal activity, Candida albicans; settings: complete growth inhibition, read-out: Minimum Inhibitory Concentration
Description: as §1

[7] = system: Ceratocystis ips; test: conventional agar dilution test, fungicidal activity, Ceratocystis ips; settings: complete growth inhibition, read-out: Minimum Inhibitory Concentration
Description: as §1

[8] = system: Trichoderma sp. 42; test: conventional agar dilution test, fungicidal activity, Trichoderma sp. 42; settings: complete growth inhibition, read-out: Minimum Inhibitory Concentration
Description: as §1

SMILES | MIC [1] [µg/mL] | MIC [2] [µg/mL] | MIC [3] [µg/mL] | MIC [4] [µg/mL] | MIC [5] [µg/mL] | MIC [6] [µg/mL] | MIC [7] [µg/mL] | MIC [8] [µg/mL]
N#CSCOc1c(Cl)cnc(Cl)c1Cl [III, Thiocyanic acid, [(2,3,5-trichloro-4-pyridinyl)oxy]methyl ester] | 10 (≈ 37.1 µM) | 1 (≈ 3.71 µM) | 10 (≈ 37.1 µM) | 1 (≈ 3.71 µM) | 1 (≈ 3.71 µM) | 10 (≈ 37.1 µM) | 10 (≈ 37.1 µM) | 10 (≈ 37.1 µM)
N#CSCOc1nc(Cl)c(Cl)c(OCCl)c1Cl [IV, Thiocyanic acid, [(3,5,6-trichloro-4-(chloromethoxy)-2-pyridinyl)oxy]methylester] | 100 (≈ 299 µM) | 1 (≈ 2.99 µM) | 10 (≈ 29.9 µM) | 10 (≈ 29.9 µM) | 10 (≈ 29.9 µM) | 10 (≈ 29.9 µM) | 10 (≈ 29.9 µM) | 10 (≈ 29.9 µM)
N#CSCOc1cc(C(Cl)(Cl)Cl)cc(Cl)n1 [VI, Thiocyanic acid [(6-chloro-4-(trichloromethyl)-2-pyridinyl)-oxy]methyl ester] | 100 (≈ 314 µM) | 1 (≈ 3.14 µM) | 100 (≈ 314 µM) | 1 (≈ 3.14 µM) | 10 (≈ 31.4 µM) | 100 (≈ 314 µM) | 10 (≈ 31.4 µM) | 100 (≈ 314 µM)
N#CSCOc1nc(F)c(Cl)cc1Cl [V, Thiocyanic acid, [(3,5-dichloro-6-fluoro-2-pyridinyl)oxy]methyl ester] | 10 (≈ 39.5 µM) | 1 (≈ 3.95 µM) | 10 (≈ 39.5 µM) | 1 (≈ 3.95 µM) | 10 (≈ 39.5 µM) | 10 (≈ 39.5 µM) | 10 (≈ 39.5 µM) | 10 (≈ 39.5 µM)
N#CSCOc1nc(Cl)c(Cl)cc1Cl [I, [(3,5,6-trichloro-2-pyridinyl)oxy]methyl thiocyanate] | 10 (≈ 37.1 µM) | 1 (≈ 3.71 µM) | 10 (≈ 37.1 µM) | 1 (≈ 3.71 µM) | 10 (≈ 37.1 µM) | 10 (≈ 37.1 µM) | 1 (≈ 3.71 µM) | 10 (≈ 37.1 µM)
N#CSCOc1c(Cl)c(Cl)nc(Cl)c1Cl [II, Thiocyanic acid, [(2,3,5,6-tetrachloro-4-pyridinyl)oxy]-methyl ester] | > 100 | 1 (≈ 3.29 µM) | > 100 | 10 (≈ 32.9 µM) | 100 (≈ 329 µM) | > 100 | 10 (≈ 32.9 µM) | > 100

Reference: US4062853A, “Chloro-pyridinyloxymethyl esters of thiocyanic acid” (The Dow Chemical Company, priority 1973, dated 1977)
